Data from US10287311B2, “Modified fluorinated nucleoside analogues” (priority 2003, dated 2019).
Where two headings read alike, the source gives them in different places.

Assays:
Dengue Type 2 = assay: Antiviral activity, Dengue Type 2 in Vero cells; type: cell-based, Dengue virus; conditions: for EC50: Dengue Type 2, Vero
Yellow Fever virus = type: cell-based
Influenza B = assay: microbe, parasite or virus in culture; type: cell-based; conditions: MDCK
Rhinovirus Type 2 = assay: Antiviral activity, Rhinovirus Type 2 in KB cells; type: cell-based; conditions: for EC50: Enterovirus, Rhinovirus Type 2, KB
VEE = assay: organism not typed; type: cell-based; conditions: Vero
SARSCoV = assay: organism not typed; type: cell-based; conditions: Vero
RSV = assay: Antiviral activity, RSV; type: cell-based; conditions: human respiratory syncytial virus
Coronavirus 229E = assay: Antiviral activity, Coronavirus 229E; type: cell-based
[1] = Cytotoxicity assay (MTS), CloneA; type: cell-based; conditions: human, Clone A cells
Method: (§1) 50 μl of 2× drug dilutions were added per well in a 96 well plate. Final concentrations of drug ranged from 1 to 100 μM. A “no drug” (media only) control was used to determine the minimum absorbance values and a “cells+media only” control was used for maximum absorbance value. A solvent control was also used. Cells were then added (PBM: 5×10^4 cells/well; CEM: 2.5×10^3 cells/well; Vero, HepG2, Huh-7, and Clone A: 5×10^3 cells/well) and incubated at 37° C. in a humidified 5% CO2 atmosphere for 3-5 days (PBM: 5 days; CEM: 3 days, all others: 4 days). After incubation, 20 μl of MTS dye was added from Cell Titer Aqueous One Solution Cell Proliferation Assay to each well and the plate was re-incubated for 2-4 hours. The absorbance (490 nm) was then read on an ELISA plate reader using the media only/no cell wells as blanks. Percent inhibition was found and used to calculate the CC50.

[2] = Cytotoxicity assay (MTS), HepG2; type: cell-based; conditions: human, HepG2 cells
Method: as §1

[3] = Cytotoxicity assay (MTS), MDBK; type: cell-based; conditions: bovine, MDBK cells
[4] = Cytotoxicity assay (MTS), PBM; type: cell-based; conditions: PBM cells
Method: as §1

[5] = Cytotoxicity assay (MTS), CEM; type: cell-based; conditions: human, CEM cells
Method: as §1

[6] = Cytotoxicity assay (MTS), Vero; type: cell-based; conditions: African green monkey, Vero cells
Method: as §1

[7] = Cytotoxicity assay (MTS), MRC-5; type: cell-based; conditions: human, MRC-5 cells; MRC-5, MTS assay
HepG2 cells = assay: Mitochondria toxicity assay; type: cell-based; conditions: 7 days
Method: Fifty microliters of 2× drug dilutions were added per well in a 96 well plate. […] Ribosomal DNA levels were used to determine specific toxicity to mitochondria or generally cytotoxicity. HepG2 cells (5,000 cells/well at 50 μl) were added to the plate. The plate was incubated at 37° C. in a humidified 5% CO2 atmosphere for 7 days. After incubation, the supernatant was removed and stored for lactic acid quantification, and total DNA was extracted from cells as described in the RNeasy 96 handbook (February 1999), pages 22-23. No DNA digestions were performed, therefore total RNA and DNA were extracted. The extracted DNA was amplified and the change in mitochondrial DNA and ribosomal DNA for each sample was determined. The fold difference in mitochondrial DNA normalized for ribosomal DNA relative to control was calculated. Lactic acid quantification was performed by the D-Lactic Acid/L-Lactic acid test kit (Boehringer Mannheim/R-Biopharm/Roche). The total amount of lactic acid produced for each sample was found as well as the fold change in lactic acid production (% of lactic acid/% of rDNA) as described in the manufacturers instructions.

[8] = tested on: Human bone marrow cells, BFU-E; assay: Bone marrow toxicity assay, BFU-E; type: cell-based; conditions: Bone marrow cell
Method: (§2) The culture assays for CFU-GM and BFU-E are performed using a bilayer soft agar or methylcellulose method. Drugs are diluted in tissue culture medium and filtered. After 14 to 18 days at 37° C. in a humidified atmosphere of 5% CO2 in air, colonies of greater than 50 cells are counted using an inverted microscope. The results are presented as the percent inhibition of colony formation in the presence of drug compared to solvent control cultures.

[9] = tested on: Human bone marrow cells, CFU-GM; assay: Bone marrow toxicity assay, CFU-GM; type: cell-based; conditions: CFU-GM
Method: as §2

in vitro [10] = conditions: African green monkey
in vitro [11] = conditions: human
replicon HCV RNA = assay: HCV replicon assay (clone not specified)
[12] = Cytotoxicity (CPE, Neutral Red) in KB cells of the antiviral tests; conditions: human
[13] = Cytotoxicity (CPE, Neutral Red) in MDCK cells of the antiviral tests; conditions: dog, MDCK cells
MDCK cells = assay: as above; conditions: MDCK, Influenza B test
[14] = Neutral Red, read-out: EC50, NR

With `C[C@@]1(F)[C@H](O)[C@@H](CO)O[C@H]1n1ccc(N)nc1=O` the “activity against Dengue virus (in words)” value (Dengue Type 2) was “shows activity”, the EC50 (Dengue Type 2; read-out: EC50, CPE) was 55 µM and the EC50 (Dengue Type 2; Dengue virus, Vero, Neutral Red, read-out: EC50, NR) was greater than 100 µM. The EC50 (Dengue Type 2; Dengue virus, Vero, read-out: EC50, CPE) was 32 µM, the “activity against Yellow Fever virus (in words)” value (Yellow Fever virus) was “shows activity” and the EC50 (Influenza B; [14]) was greater than 100 µM. For the same compound, the EC50 (Influenza B; read-out: EC50, CPE) was greater than 100 µM, the “activity against Rhinovirus (in words)” value (Rhinovirus Type 2) was “shows activity” and the EC50 (Rhinovirus Type 2; [14]) was 20 µM. The EC50 (Rhinovirus Type 2; read-out: EC50, CPE) was 25 µM, the EC50 (VEE; read-out: EC50, CPE) was greater than 100 µM and the EC50 (VEE; read-out: EC50, NR) was greater than 100 µM. It also gave an EC50 (SARSCoV; read-out: EC50, CPE) greater than 100 µM, an EC50 (SARSCoV; read-out: EC50, NR) greater than 100 µM and an EC90 (RSV) greater than 100 µM. For the same compound, the “activity on Corona virus (in words)” value (Coronavirus 229E) was “lack of activity”, the EC90 (Coronavirus 229E; Human coronavirus 229E) was greater than 100 µM and the CC50 at 4 days [1] was greater than 100 µM. It also gave a CC50 at 4 days [2] of 75 µM, a CC50 at 4 days [3] greater than 100 µM and a CC50 at 5 days [4] greater than 100 µM. The CC50 at 3 days [5] was greater than 100 µM, the CC50 at 4 days [6] was greater than 100 µM and the CC50 at 4 days [7] was greater than 100 µM. For the same compound, the “Lactic Acid Increase” value (HepG2 cells) was “No effect ≥ 33 μM”, the IC50 (HepG2 cells; Homo sapiens, 168 h, read-out: mtDNA Synthesis (IC50)) was greater than 25 µM and the IC50 [8] was 98.2 µM. The IC50 [9] was 93.9 µM, the CC50 (Vero cells; African green monkey) was greater than 100 µM and the CC50 (Vero cells; read-out: CC50, CPE, Vero, SARSCoV test) was greater than 100 µM. For the same compound, the CC50 (Vero cells; read-out: CC50, NR, Vero, SARSCoV test, Neutral Red) was greater than 100 µM, the CC50 (Vero cells; read-out: CC50, NR, Vero, VEE test, Neutral Red) was greater than 100 µM and the “deaths during the 30-day study” value (female Swiss mice; female Swiss mice, intraperitoneal, days 0 to 5, 0, 3.3, 10, 33, 100 mg/kg) was “no mice died”. The “toxicity observed in the mice” value (female Swiss mice; mouse, in vivo) was “No significant toxicity”, the CC50 (in vitro [10]) was greater than 100 µM and the CC50 (in vitro [11]) was greater than 100 µM. It also gave an EC90 (replicon HCV RNA; Hepatitis C virus, 96 h, read-out: EC90 (1-log reduction of replicon RNA), 4-days incubation / 96 hours, FIG. 1A (converted)) of roughly 2.5 µM, an EC90 (replicon HCV RNA; Hepatitis C virus, read-out: EC90 values, range for the replicon clones, range over replicon clones of Table 1) of 1.6 to 4.6 µM and an EC90 (replicon HCV RNA; read-out: EC90 (1-log reduction of replicon RNA) (converted), 4-days incubation / 96 hours, FIG. 1A) of 5 µM. The CC50 [12] was greater than 100 µM, the CC50 [13] was greater than 100 µM and the CC50 (MDCK cells; read-out: CC50, CPE) was greater than 100 µM. For the same compound, the CC50 (MDCK cells; read-out: CC50, NR, Neutral Red) was greater than 100 µM.
